# In patent US20250352444A1, “Antimicrobial mixtures” (Symrise AG, priority 2022, published 2025):
# Like-named read-outs stand apart in the source and are kept apart here.
# What was measured:
# [1] = system: Streptococcus mutans (DSM 20523, ATCC 25175); test: Minimum inhibitory concentration (MIC), DIN 58940-8 micro dilution method; format: cell-based; conditions: for MIC: Streptococcus mutans
# Protocol: (§1) MIC data were evaluated based on DIN 58940-8 micro dilution method. For the experiments three relevant bacteria occurring in the oral biofilm were selected: Streptococcus mutans (DSM 20523, ATCC 25175), Porphyromonas gingivalis (DSM 20709, ATCC33277), and Prevotella intermedia (DSM 20706, ATCC25611).
# (§2) All test organisms were cultivated in suitable complex medium and under anaerobic and/or microaerophilic conditions. Every test substance was applied as technical triplicate on a 96-microtiter plate in a total volume of 300 μL per well. The inoculum was directly transferred from a glycerin stock solution or from a freshly prepared preculture. Therefore 15 mL reagent tubes were filled with specific complex growth medium and inoculated with skim milk stocks of single strains. The incubation was done at 37° C. up to 48 h until an OD620>0.1-1.0. Suspensions were controlled microscopically. In both cases the bacteria were transferred and diluted to fresh complex medium on a 96 well plate.
# (§3) Test substances were either the pure materials or mixtures. The mixtures contain a cooling compound and an aroma component according to claims. Further these effective building blocks can be included in an aroma composition. Therefore, nature identical (synthetic) bases (base nature identical A/B) and/or natural basic formulations (base natural A/B) can be added.
# (§4) The mixtures contained either Carvacrol (synthetic material) or the natural oregano oil with a typical Carvacrol content in the range of 50-80%.
# (§5) Test substances were 100-fold solved in dimethyl sulfoxide (DMSO) and diluted directly on the 96 well plate. As […] farnesol and/or triclosan were applied in appropriate concentrations from 1 to 100 ppm. An untreated medium control was applied as growth control. The incubation of the test plates was done for 16-24 h at 37° C. At the end of the experiment, growth was determined photometrically by detecting OD620 values using Sunrise Photometer (TECAN, Austria). Mean values of triplicates were calculated and normalized with blank values (growth medium with or without test substances). The growths of treated wells were evaluated in relation to the growth control. Minimum inhibition concentrations (MIC) were defined as minimal concentration (in ppm) that causes a complete inhibition of bacterial growth.
# (§6) Synergies were calculated using the following formula. The formula can be modified according to the number of components per mixture. MIC stands for minimum inhibitory concentration with the dimension of parts per million [ppm].
# (§7) [formula] • MICmix=MIC value of mixture [ppm] • PA=Percentage of component A [%] • MIC A=MIC value of component A [ppm] • PB=Percentage of component B [%] • MIC B=MIC value of component B [ppm] A synergism is given if the resulting value is below 1.
# [2] = system: Porphyromonas gingivalis (DSM 20709, ATCC33277); test: as above; format: cell-based; conditions: for MIC: Porphyromonas gingivalis
# Protocol: as §1, §2, §3, §4, §5, §6, §7
# [3] = system: Prevotella intermedia (DSM 20706, ATCC25611); test: as above; format: cell-based; conditions: for MIC: Prevotella intermedia
# Protocol: as §1, §2, §3, §4, §5, §6, §7
# oral biofilm = test: Ex vivo biofilm model (Calgary Biofilm Device, FDA hydrolysis); format: cell-based, human; conditions: compared to untreated control biofilm (100%); treatment 4 times within 2 days for 2 min at 37° C.
# Protocol: The experiment was developed following the method described in WO2018/033211 and Kistler et al (Kistler et al. 2015).
# Up to 50 subjects were recruited for saliva donation. Participants were between 18 and 65 years old and medically healthy. Subjects who had taken antibiotics, ate antimicrobial food such as garlic within last 24 h and/or had suffer from any systemic conditions that may affected their immune or inflammatory status, were excluded from the study. Fresh morning saliva from all donors were selected and pooled. All volunteers were asked to refrain from drinking, eating, or brushing their teeth bevor donating by expectoration into sterile universal tubes.
# The Calgary Biofilm Device (CBD) was originally developed for medical usage. It is commercially available as MBEC (Minimum Biofilm Eradication Concentration) Biofilm Inoculator and it is suitable as a basis for biofilm research (Kistler et al. 2015; Ceri et al. 1999). […]
# Stock solutions of all test substances were prepared in dimethylsulfoxide (DMSO). […] At the end the pegs were washed again, and microbial activity was quantified photometrically by fluorescein diacetate (FDA) hydrolysis. FDA is converted into fluorescein by protease, lipase, and esterase activities in the biofilm, thus the quantification of fluorescein represents the activity of the biofilm.
# [4] = S. mutans, component alone, read-out: MIC B (MIC value of component B)
# [5] = read-out: MIC A (MIC value of component A)
compound,measurement,setting,value
CC(C)[C@@H]1CC[C@@H](C)C[C@H]1OC(=O)[C@@H](C)O (stereo in doubt) [Menthyl lactate],MIC,[1]; [4],250 µg/mL
same,MIC,"[2]; P. gingivalis, component alone, read-out: MIC B (MIC value of component B)",125 µg/mL
same,MIC,"[3]; P. intermedia, component alone, read-out: MIC B (MIC value of component B)",125 µg/mL
"CC(C)[C@@H]1CC[C@@H](C)C[C@H]1OCC(O)CO (stereo partly drawn) [3-(−)-Menthoxy)propane-1,2-diol]",MIC,[1]; [4],500 µg/mL
Cc1ccc(C(C)C)cc1O [Carvacrol],relative biofilm activity after treatment (FIG. 1),oral biofilm,concentration dependent oral biofilm reduction
same,MIC,[1]; [5],250 µg/mL
same,MIC,[2]; [5],250 µg/mL
same,MIC,[3]; [5],250 µg/mL
"CC1CCC(C(C)C)C2(C1)OCC(CO)O2 [D,L-Menthone glyceryl ketal]",MIC B (MIC value of component B),"[1]; S. mutans, component alone",500 ppm
same,MIC B (MIC value of component B),"[2]; P. gingivalis, component alone",250 ppm
same,MIC B (MIC value of component B),"[3]; P. intermedia, component alone",250 ppm
CC(O)COC(=O)O[C@@H]1C[C@H](C)CC[C@H]1C(C)C (stereo partly shown) [Menthyl propylene glycol carbonate],MIC B (MIC value of component B),"[1]; S. mutans, component alone",125 ppm
(−)-Menthyl propylene glycol carbonate,MIC B (MIC value of component B),"[2]; P. gingivalis, component alone",125 ppm
